Test results from patent US6566399B2, “Inhibitor of replicative senescence of human keratinocytes containing retinoic acid as active ingredients” (priority 2000, dated 2003).

Assays:
NHOK = assay: Mitotic capacity of NHOK through continuous subculture (PDL, SA-β-gal); assay type: cell-based, human; conditions: 1 nM
Procedure: (§1) At the end of each stage, the population doubling level of NHOK was calculated by the following equation 1: […]
(§2) Wherein, N: PDL, Cf: total cell numbers obtained from the end of a passage, Ci: total cell numbers of attached cells at seeding.
(§3) NOOK (PDL 15) showing rapid proliferation was cultured with 2×10^5 cell per 60-mm petri dish. In addition, NHEK (PDL 11) was cultured in the same manner as in the NHOK. The cells were divided into two groups, which were cultured in KGM containing vehicle (0.001% DMSO) or 1 nM all-trans retinoic acid until the cells reached 70% confluency, and then subcultured until they reached the postmitotic stage of cell proliferation. All-trans retinoic acid was used by dissolving it in DMSO and then diluting with KGM so as to have a final DMSO concentration of 0.001%. The PDL accumulated at the last stage of each subculture and the senescent cell numbers in the cultured NHOK and NHEK, that is to say, the percentage (%) of positive cells by SA-β-gal staining were determined. The cell pellet obtained after washing with 1X PBS was frozen at −70° C. for TRAP and Western blot analysis (see, FIGS. 3a, 3b, 3c, 4a, 4b, and 4c).

[1] = tested on: telomerase activity of NHOK; assay: Telomerase activity of NHOK by TRAP assay; assay type: cell-based, human; conditions: 1 nM
Procedure: (§4) To investigate telomerase activity of NHOK and NHEK exposed to all-trans retinoic acid, the telomerase activity was determined using a TPAP-eze telomerase detection kit (Oncor Inc.), which, is based on the TRAP assay.
(§5) More specifically, the frozen cell pellet in the above example 4 was dissolved in 200 μl of 1X CHAPS buffer (composition: 10 mM Tris-HCl pH 7.5, 1 mM MgCl2; 1 mM EDTA 0.5% 3[(3-cholamidopropyl)-dimethylammonium]-1-propanesulfonate, 10% glycerol, 5 mM β-mercaptoethanol and 0.1 mM benzamidine), incubated on ice for 30 minutes; and then centrifuged at 12,000 rpm for 30 minutes at 4° C. The separated supernatant was aliquoted and frozen on dry ice for TRAP assay.
(§6) For TRAP analysis, 2 μl of cell lysate containing 1.0 μg of cellular proteins were added to 48 μl of solution including 1X TRAP reaction buffer [composition: 20 mM Tris-HCl (pH 8.3), 1.5 mM MgCl2, 63 mM KCl 0.005% Tween 20, and 1 mM EGTA], 50 μM of each of four types of deoxynucleotide triphosphates, 0.05 μg of TS primer end-labeled with 20 μCi of [γ^32-P] ATP (3000 Ci/mmol; Amersham Corp.), 1 μl of primer mix, and Taq DNA polymerase (Perkin-Elmer) 0.4 unity. […] The PCR products were run in 12.5% nondenaturing polyacrylamide gel in 1X Tris-borate EDTA for 90 minutes at 60 W. After drying the gel, the radioactive signal was detected by autoradiography.

[2] = tested on: p16^INK4A protein in NHOK; assay: p16^INK4A protein level in NHOK by Western blot; assay type: cell-based, human; conditions: 1 nM, at any given PDL number
Procedure: (§7) To investigate the expression levels of pRb and p16^INK4A proteins in NHOK and NHEK that are exposed to all trans retinoic acid, Western blot analysis (Min B. -M. et al., Int. J. Oncol., 1995, 7, 249-256) was performed using anti-mouse Rb (IFB) monoclonal antibody and anti-human p16 (C-20) polyclonal antibody (Santa Cruz Biotechnology). After probing with each of the respective antibodies, the membrane was stained with 1X Ponceau S stain for 10 minutes to reveal the total protein loading per lane.

[3] = tested on: normal human oral keratinocytes (NHOK); assay: NHOK proliferation rate with all-trans retinoic acid (viable cell count by trypan blue exclusion); assay type: cell-based
Procedure: NHOK were prepared from human gingival tissue specimens (Min B. -M. et al., Int. J. Oncol., […], 7, 249-256). The tissue samples obtained from four healthy volunteers (ages ranged from 18 to 30 years) were thoroughly washed three times with calcium and magnesium-free Hanks' balanced salt solution (CMF-HBSS; GibcoBRL). In order to separate the epithelial tissue from the underlying mucosa, the tissue scruples were incubated in CMF-HBSS containing collagenase type II (1.0 mg/ml; Sigma Chemical Co.) and dispase grade II (2.4 mg/ml; Boeringer-Mannheim) for 90 min at 37° C. in 95% air and 5% carbon dioxide Primary NHOK were prepared from separated oral epithelial tissue (Min B. -M. et al., Int. J. Oncol. 1995, 7, 249-256), and cultured in keratinocyte basal medium containing 0.15 mM calcium and supplementary growth factor bullet kit (KGM; Clonetics Corp.) as described above. […]
To determine the effect of all-trans retinoic acid on cell proliferation, rapidly proliferating NHOK (PDL 18) were plated at 2×10^4 cells per well in a 24-well culture plate. […] The average number and standard deviation were calculated as the means of four independent experiments (FIG. 1a).

[4] = Acute oral toxicity test of rat; conditions: Sprague-Dawley, in vivo, 1 g/kg/15 ml
Procedure: To investigate the acute oral Toxicity test: Sprague-Dawley rats aged 6 weeks are used. Two rats per group were orally administered with all-trans retinoic acid and the 0.5% methyl cellulose solutions at a dose of 1 g/kg/15 ml one time. After administration, clinical symptoms, occurrence of death and the change of weight were observed. In addition, the rats were killed after administration, dissected, and celiac intestine and thoracic were examined with the unaided eye.

[5] = tested on: telomerase activity of NHEK; assay: Telomerase activity of NHEK by TRAP assay; assay type: cell-based, human; conditions: 1 nM
Procedure: as §4, §5, §6

senescent NHOK (PDL 22) = assay: Senescence inhibition of senescent NHOK by SA-β-gal staining; assay type: cell-based, human; conditions: 1 nM, 21 days
Description: The senescent NHOK were positively stained by β-galactosidase (Dimri G. D. et al., Proc. Nat. Acad. Sci., 1995, 92, 9363-9367). Using such properties, the inhibition against senescence of all-trans retinoic acid-treated NHOK was examined. […]
To ensure a representative count, each cell culture was divided into four equal parts and minimum two areas per each part were photographed with Olympus IMT-2 phase-contrast microscope, thus counting the cells. As the result, minimum 500 or more cells per each part were counted.
After the senescent NHOK (PDL 22) were exposed to 1, 10, or 100 nM retinoic acid for 21 days the percentage (%) of senescent cells was obtained from SA-β-gal positive cell (%) versus total cells. The average percentage (%) and standard deviation were calculated from three independent experiments.

[6] = tested on: p16^INK4A protein in NHEK; assay: p16^INK4A protein level in NHEK by Western blot; assay type: cell-based, human; conditions: 1 nM, PDL 13.6-17.1
Procedure: as §7

[7] = tested on: normal human epidermal keratinocytes (NHEK); assay: NHEK proliferation rate with all-trans retinoic acid (viable cell count by trypan blue exclusion); assay type: cell-based
Procedure: NHEK was prepared in the same manner as in the above example 1, except that tissue samples were taken from human foreskin tissue specimens of two healthy volunteers (ages ranged from 1 to 3 years).
To determine the effect of all-trans retinoic acid on cell proliferation, rapidly proliferating NHEK (PDL 11) were plated at 2×10^4 cell per well in a 24-well plate and cultured until their cell density reached 40% (24 hours after the plating). The cultured cells were exposed to all-trans retinoic acid containing various concentrations, 1 nM, 10 nM, 100 nM, 500 nM, 1 μM, and 5 μM and harvested after 2 or 4 days of incubation to count the number of viable cells by trypan blue exclusion. The average number and standard deviation was calculated as above same procedure (FIG. 1b).

pRb protein in NHOK = assay: pRb protein level in NHOK by Western blot; assay type: cell-based, human; conditions: 1 nM
Procedure: as §7

NHEK = assay: Mitotic capacity of NHEK through continuous subculture (PDL, SA-β-gal); assay type: cell-based, human; conditions: 1 nM
Procedure: as §1, §2, §3

## CC1=C(/C=C/C(C)=C/C=C/C(C)=C/C(=O)O)C(C)(C)CCC1 [all-trans retinoic acid]
NHOK; serial subculture from PDL 15, vehicle: until PDL 20
  upper end of the log phase of cell proliferation (PDL): 26 PDL
NHOK; serial subculture, vehicle: PDL 22
  PDL at which cells ceased to proliferate: 28 PDL
[1]; PDL 27 and 28 (replicative senescence)
  telomerase activity: almost undetectable
[1]; at high PDL numbers
  telomerase activity: maintained or slightly increased
[2]
  intracellular p16^INK4A protein level compared to the vehicle control: significantly lower
[3]; 1 nM, among test concentrations 1 nM to 10 μM
  cell proliferation of NHOK, best of the test concentrations: maximally enhanced
[3]; NHOK (PDL 18), 1 or 10 nM, 2 or 4 days of incubation
  cell proliferation of NHOK compared to the vehicle control: noticeably increased
[4]
  LD50: > 2000 mg/kg
[5]; PDL 24.3 and 25.1 (replicative senescence)
  telomerase activity: hardly or almost undetected
[5]; according to the increase of PDL
  telomerase activity: maintained
Senescent NHOK (PDL 22)
  replicative senescence (SA-β-gal positive cells) compared to the vehicle control: significantly inhibited
[6]
  intracellular p16^INK4A protein level compared to the vehicle control: much lower
[7]; 1 nM, among test concentrations 1 nM to 5 μM
  cell proliferation of NHEK, best of the test concentrations: maximum cell proliferation
[7]; 1 μM or higher
  growth of NHEK: restrained in their growth
[7]; NHEK (PDL 11), 1 nM, 2 or 4 days of incubation
  cell proliferation of NHEK compared to the vehicle control: notably increased
pRb protein in NHOK; according to the increase of PDL (high PDL)
  pRb protein level compared to the vehicle control: higher levels
pRb protein in NHOK; early culture at PDL 18
  amount of pRb protein: extremely low
pRb protein in NHOK; low PDL
  pRb protein level compared to the vehicle control of corresponding PDL: much lower
NHEK; serial subculture from PDL 10.8, vehicle: until PDL 19.8
  upper end of the log phase of cell proliferation (PDL): 24.3 PDL
NHEK; serial subculture, vehicle: PDL 20.5
  PDL up to which cells proliferated (no further proliferation): 25.1 PDL
